Columns and labels:
Mino cells = assay: Antiproliferative effect, MTS cell viability assay, Mino cells; assay type: cell-based; details: Homo sapiens, MINO, Mino mantle cell lymphoma cells; read-out: IC50 (anti-proliferation) Mino cells
In short: (§1)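 Tested at six concentrations (0 to 10 μM in tenfold steps), 72 h; viability by MTS, A490.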

JeKo-1 cells = assay: Antiproliferative effect, MTS cell viability assay, JeKo-1 cells; assay type: cell-based; details: Homo sapiens; JeKo-1 mantle cell lymphoma cells; read-out: IC50 (anti-proliferation) JeKO-1 cells
In short: as §1

BTK = BTK (Homo sapiens, UniProt Q06187); assay: Degradation of BTK protein in Namalwa cells (Western blot; DC50, Dmax); details: for DC50: BTK degradation, cell line not given
Sequence of BTK (Q06187 whole entry): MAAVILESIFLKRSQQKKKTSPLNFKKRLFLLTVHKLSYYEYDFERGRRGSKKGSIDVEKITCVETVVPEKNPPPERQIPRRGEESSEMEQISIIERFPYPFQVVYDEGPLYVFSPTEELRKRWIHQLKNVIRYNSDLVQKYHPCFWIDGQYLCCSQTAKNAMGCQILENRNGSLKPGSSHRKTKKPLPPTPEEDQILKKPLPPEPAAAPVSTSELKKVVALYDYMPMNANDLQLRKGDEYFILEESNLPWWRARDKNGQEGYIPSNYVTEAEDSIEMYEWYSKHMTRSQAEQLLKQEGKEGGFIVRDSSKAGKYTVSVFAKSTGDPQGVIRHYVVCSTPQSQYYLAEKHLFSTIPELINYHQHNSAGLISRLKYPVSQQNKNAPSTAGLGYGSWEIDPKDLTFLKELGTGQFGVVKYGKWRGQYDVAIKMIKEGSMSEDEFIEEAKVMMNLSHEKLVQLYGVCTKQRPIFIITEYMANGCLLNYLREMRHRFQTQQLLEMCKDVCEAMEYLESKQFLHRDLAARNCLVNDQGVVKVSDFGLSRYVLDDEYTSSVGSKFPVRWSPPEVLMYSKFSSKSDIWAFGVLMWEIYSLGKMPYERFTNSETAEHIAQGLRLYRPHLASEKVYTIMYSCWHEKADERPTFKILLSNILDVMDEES

| SMILES | Dmax (BTK) [%] | DC50 (BTK) [nM] | IC50 (Mino cells) [nM] | IC50 (JeKo-1 cells) [nM] |
| --- | --- | --- | --- | --- |
| NC(=O)c1c(-c2ccc(Oc3ccccc3)cc2)nn2c1NCCC2C1CCN(CC2CCN(C(=O)N3CCN(Cc4ccc5c(c4)C(=O)N(C4CCC(=O)NC4=O)C5=O)CC3)CC2)CC1 (stereo not shown) [Compound 359, 7-(1-((1-(4-((2-(2,6-dioxopiperidin-3-yl)-1,3-dioxoisoindolin-5-yl)methyl)piperazine-1-carbonyl)piperidin-4-yl)methyl)piperidin-4-yl)-2-(4-phenoxyphenyl)-4,5,6,7-tetrahydropyrazolo[1,5-a]pyrimidine-3-carboxamide] | > 50 | > 50 | > 10000 | > 10000 |
| NC(=O)c1c(-c2ccc(Oc3ccccc3)cc2)nn2c1NCCC2C1CCN(CC2CCN(C(=O)N3CCN(Cc4ccc5c(c4)CN(C4CCC(=O)NC4=O)C5=O)CC3)CC2)CC1 (stereo not shown) [Compound 360, 7-(1-((1-(4-((2-(2,6-dioxopiperidin-3-yl)-1-oxoisoindolin-5-yl)methyl)piperazine-1-carbonyl)piperidin-4-yl)methyl)piperidin-4-yl)-2-(4-phenoxyphenyl)-4,5,6,7-tetrahydropyrazolo[1,5-a]pyrimidine-3-carboxamide] | > 75 | > 50 | > 10000 | > 10000 |
| NC(=O)c1c(-c2ccc(Oc3ccccc3)cc2)nn2c1NCCC2C1CCN(CC2CCN(C(=O)N3CCN(C4CCN(c5ccc6c(c5)C(=O)N(C5CCC(=O)NC5=O)C6=O)CC4)CC3)CC2)CC1 (stereo not shown) [Compound 361, 7-(1-((1-(4-(1-(2-(2,6-dioxopiperidin-3-yl)-1,3-dioxoisoindolin-5-yl)piperidin-4-yl)piperazine-1-carbonyl)piperidin-4-yl)methyl)piperidin-4-yl)-2-(4-phenoxyphenyl)-4,5,6,7-tetrahydropyrazolo[1,5-a]pyrimidine-3-carboxamide] | > 90 | 10 to 50 | 1000 to 10000 | 1000 to 10000 |
| NC(=O)c1c(-c2ccc(Oc3ccccc3)cc2)nn2c1NCCC2C1CCN(CC2CCN(C(=O)N3CCC(N4CCN(c5ccc6c(c5)C(=O)N(C5CCC(=O)NC5=O)C6=O)CC4)CC3)CC2)CC1 (stereo not shown) [Compound 363, 7-(1-((1-(4-(4-(2-(2,6-dioxopiperidin-3-yl)-1,3-dioxoisoindolin-5-yl)piperazin-1-yl)piperidine-1-carbonyl)piperidin-4-yl)methyl)piperidin-4-yl)-2-(4-phenoxyphenyl)-4,5,6,7-tetrahydropyrazolo[1,5-a]pyrimidine-3-carboxamide] | > 90 | 10 to 50 | < 1000 | 1000 to 10000 |
| NC(=O)c1c(-c2ccc(Oc3ccccc3)cc2)nn2c1NCCC2C1CCN(CC2CCN(C(=O)N3CCC(C4CCN(c5ccc6c(c5)C(=O)N(C5CCC(=O)NC5=O)C6=O)CC4)CC3)CC2)CC1 (stereo not shown) [Compound 365, 7-(1-((1-(1′-(2-(2,6-dioxopiperidin-3-yl)-1,3-dioxoisoindolin-5-yl)-[4,4′-bipiperidine]-1-carbonyl)piperidin-4-yl)methyl)piperidin-4-yl)-2-(4-phenoxyphenyl)-4,5,6,7-tetrahydropyrazolo[1,5-a]pyrimidine-3-carboxamide] | > 90 | 10 to 50 | < 1000 | < 1000 |
| NC(=O)c1c(-c2ccc(Oc3ccccc3)cc2)nn2c1NCCC2C1CCN(CC2CCN(C(=O)N3CCC(N4CCC(c5ccc6c(c5)C(=O)N(C5CCC(=O)NC5=O)C6=O)CC4)CC3)CC2)CC1 (stereo not shown) [Compound 367, 7-(1-((1-(4-(2-(2,6-dioxopiperidin-3-yl)-1,3-dioxoisoindolin-5-yl)-[1,4′-bipiperidine]-1′-carbonyl)piperidin-4-yl)methyl)piperidin-4-yl)-2-(4-phenoxyphenyl)-4,5,6,7-tetrahydropyrazolo[1,5-a]pyrimidine-3-carboxamide] | > 90 | 10 to 50 | < 1000 | 1000 to 10000 |
| NC(=O)c1c(-c2ccc(Oc3ccccc3)cc2)nn2c1NCCC2C1CCN(CC2CCN(C(=O)N3CCC(CN4CCN(c5ccc6c(c5)CN(C5CCC(=O)NC5=O)C6=O)CC4)CC3)CC2)CC1 (stereo not shown) [Compound 370, 7-(1-((1-(4-((4-(2-(2,6-dioxopiperidin-3-yl)-1-oxoisoindolin-5-yl)piperazin-1-yl)methyl)piperidine-1-carbonyl)piperidin-4-yl)methyl)piperidin-4-yl)-2-(4-phenoxyphenyl)-4,5,6,7-tetrahydropyrazolo[1,5-a]pyrimidine-3-carboxamide] | > 90 | < 10 | < 1000 | < 1000 |
| NC(=O)c1c(-c2ccc(Oc3ccccc3)cc2)nn2c1NCCC2C1CCN(CC2CCN(C(=O)N3CCN(CC4CCN(c5ccc6c(c5)C(=O)N(C5CCC(=O)NC5=O)C6=O)CC4)CC3)CC2)CC1 (stereo not shown) [Compound 371] | > 90 | 10 to 50 | < 1000 | < 1000 |
| NC(=O)c1c(-c2ccc(Oc3ccccc3)cc2)nn2c1NCCC2C1CCN(CC2CCN(C(=O)N3CCN(CC4CCN(c5ccc6c(c5)CN(C5CCC(=O)NC5=O)C6=O)CC4)CC3)CC2)CC1 (stereo not shown) [Compound 372, 7-(1-((1-(4-((1-(2-(2,6-dioxopiperidin-3-yl)-1-oxoisoindolin-5-yl)piperidin-4-yl)methyl)piperazine-1-carbonyl)piperidin-4-yl)methyl)piperidin-4-yl)-2-(4-phenoxyphenyl)-4,5,6,7-tetrahydropyrazolo[1,5-a]pyrimidine-3-carboxamide] | > 90 | 10 to 50 | 1000 to 10000 | < 1000 |
| NC(=O)c1c(-c2ccc(Oc3ccccc3)cc2)nn2c1NCCC2C1CCN(CC2CCN(C(=O)N3CCC(CC4CCN(c5ccc6c(c5)C(=O)N(C5CCC(=O)NC5=O)C6=O)CC4)CC3)CC2)CC1 (stereo not shown) [Compound 373, 7-(1-((1-(4-((1-(2-(2,6-dioxopiperidin-3-yl)-1,3-dioxoisoindolin-5-yl)piperidin-4-yl)methyl)piperidine-1-carbonyl)piperidin-4-yl)methyl)piperidin-4-yl)-2-(4-phenoxyphenyl)-4,5,6,7-tetrahydropyrazolo[1,5-a]pyrimidine-3-carboxamide] | > 75 | 10 to 50 | 1000 to 10000 | > 10000 |
| NC(=O)c1c(-c2ccc(Oc3ccccc3)cc2)nn2c1NCCC2C1CCN(CC2CCN(C(=O)N3CCC(CC4CCN(c5ccc6c(c5)CN(C5CCC(=O)NC5=O)C6=O)CC4)CC3)CC2)CC1 (stereo not shown) [Compound 374, 7-(1-((1-(4-((1-(2-(2,6-dioxopiperidin-3-yl)-1-oxoisoindolin-5-yl)piperidin-4-yl)methyl)piperidine-1-carbonyl)piperidin-4-yl)methyl)piperidin-4-yl)-2-(4-phenoxyphenyl)-4,5,6,7-tetrahydropyrazolo[1,5-a]pyrimidine-3-carboxamide] | > 75 | 10 to 50 | 1000 to 10000 | > 10000 |

Further lines, with some results ahead:

| Dmax (BTK) [%] | DC50 (BTK) [nM] | SMILES | IC50 (Mino cells) [nM] | IC50 (JeKo-1 cells) [nM] |
| --- | --- | --- | --- | --- |
| > 90 | < 10 | NC(=O)c1c(-c2ccc(Oc3ccccc3)cc2)nn2c1NCCC2C1CCN(CC2CCN(C(=O)N3CCN(C4CCN(c5ccc6c(c5)CN(C5CCC(=O)NC5=O)C6=O)CC4)CC3)CC2)CC1 (stereo not shown) [Compound 362, 7-(1-((1-(4-(1-(2-(2,6-dioxopiperidin-3-yl)-1-oxoisoindolin-5-yl)piperidin-4-yl)piperazine-1-carbonyl)piperidin-4-yl)methyl)piperidin-4-yl)-2-(4-phenoxyphenyl)-4,5,6,7-tetrahydropyrazolo[1,5-a]pyrimidine-3-carboxamide] | 1000 to 10000 | 1000 to 10000 |
| > 90 | < 10 | NC(=O)c1c(-c2ccc(Oc3ccccc3)cc2)nn2c1NCCC2C1CCN(CC2CCN(C(=O)N3CCC(N4CCN(c5ccc6c(c5)CN(C5CCC(=O)NC5=O)C6=O)CC4)CC3)CC2)CC1 (stereo not shown) [Compound 364, 7-(1-((1-(4-(4-(2-(2,6-dioxopiperidin-3-yl)-1-oxoisoindolin-5-yl)piperazin-1-yl)piperidine-1-carbonyl)piperidin-4-yl)methyl)piperidin-4-yl)-2-(4-phenoxyphenyl)-4,5,6,7-tetrahydropyrazolo[1,5-a]pyrimidine-3-carboxamide] | < 1000 | < 1000 |
| > 90 | < 10 | NC(=O)c1c(-c2ccc(Oc3ccccc3)cc2)nn2c1NCCC2C1CCN(CC2CCN(C(=O)N3CCC(C4CCN(c5ccc6c(c5)CN(C5CCC(=O)NC5=O)C6=O)CC4)CC3)CC2)CC1 (stereo not shown) [Compound 366, 7-(1-((1-(1′-(2-(2,6-dioxopiperidin-3-yl)-1-oxoisoindolin-5-yl)-[4,4′-bipiperidine]-1-carbonyl)piperidin-4-yl)methyl)piperidin-4-yl)-2-(4-phenoxyphenyl)-4,5,6,7-tetrahydropyrazolo[1,5-a]pyrimidine-3-carboxamide] | < 1000 | < 1000 |
| > 90 | < 10 | NC(=O)c1c(-c2ccc(Oc3ccccc3)cc2)nn2c1NCCC2C1CCN(CC2CCN(C(=O)N3CCC(N4CCC(c5ccc6c(c5)CN(C5CCC(=O)NC5=O)C6=O)CC4)CC3)CC2)CC1 (stereo not shown) [Compound 368, 7-(1-((1-(4-(2-(2,6-dioxopiperidin-3-yl)-1-oxoisoindolin-5-yl)-[1,4′-bipiperidine]-1′-carbonyl)piperidin-4-yl)methyl)piperidin-4-yl)-2-(4-phenoxyphenyl)-4,5,6,7-tetrahydropyrazolo[1,5-a]pyrimidine-3-carboxamide] | < 1000 | 1000 to 10000 |
| > 90 | < 10 | NC(=O)c1c(-c2ccc(Oc3ccccc3)cc2)nn2c1NCCC2C1CCN(CC2CCN(C(=O)N3CCC(CN4CCN(c5ccc6c(c5)C(=O)N(C5CCC(=O)NC5=O)C6=O)CC4)CC3)CC2)CC1 (stereo not shown) [Compound 369, 7-(1-((1-(4-((4-(2-(2,6-dioxopiperidin-3-yl)-1,3-dioxoisoindolin-5-yl)piperazin-1-yl)methyl)piperidine-1-carbonyl)piperidin-4-yl)methyl)piperidin-4-yl)-2-(4-phenoxyphenyl)-4,5,6,7-tetrahydropyrazolo[1,5-a]pyrimidine-3-carboxamide] | < 1000 | 1000 to 10000 |

Source: patent US12139492B2 (Endotarget Inc., priority 2021, dated 2024)
